# From PMC10223552 (Pharmaceuticals, 2023)
# Like-named read-outs stand apart in the source and are kept apart here.
# Experiments:
# hH3R = biological target: T1, hH3R (Homo sapiens, UniProt Q9Y5N1); experiment: biochemical; format: binding
# T1 construct: expressed in transfected cells
# Description: All newly synthesized compounds were evaluated as H3R antagonists/inverse agonists on the guinea pig ileum (gpH3R), stimulated electrically to induce contractions. The distinct affinity profile and species-dependent pharmacology of H3R ligands are known. […] Therefore, to compare species differences, all newly synthesized compounds were subjected to radioligand displacement assay in membrane fractions of HEK-293 cells stably expressing hH3R. […] Ex vivo assay for histamine H3R and H1R antagonists were measured on the isolated guinea pig ileum stimulated to contractions by histamine. The pA2-values were calculated according to Arunlakshana and Schild. The radioligand-displacement binding assay was performed in membrane fractions of HEK-293 cells stably expressing hH3R. Cell cultivation and membrane preparation was performed according to Kottke et al.. The Ki values were calculated from the IC50 values using the Cheng–Prusoff equation [37]. The statistical calculations were performed on –log(Ki). […] The inhibitory activities of novel ADS compounds were assessed in spectrophotometric Ellman’s assay using AChE from electric eel (eeAChE) and BuChE from horse serum (eqBuChE).
# 3.3 hH3R radioligand displacement binding assay.
# The radioligand displacement binding assay was performed in membrane fractions of HEK-293 cells stably expressing hH3R. Cell cultivation and membrane preparation was performed according to Kottke et al. [T. Kottke, […]
# radioligand displacement assay, radioactively labeled [3H]Nα-methylhistamine was used at a final concentration […]
# The total assay volume was set to 200 µL. The compounds were tested in several appropriate concentrations between 100 µM and 0.1 nM. Pipetting was partly done by Freedom Evo® (Tecan).
# The membrane fraction (20 […]
# µg/well), test compounds and radiolabeled ligand were incubated for 90 minutes at 25 °C while shaking. The bound radioligand was separated from the free radioligand by filtration through GF/B filters pre-treated with 0.3 % (m/v) polyethyleneimine using a cell harvester. Radioactivity was determined by liquid scintillation counting using a MicroBeta® Trilux (Perkin Elmer). The data was obtained in duplicates in at least three independent experiments. Non-specific binding was subtracted from the raw data to calculate specific-binding values. The evaluation was performed with GraphPad Prism 6.1 (San Diego, CA, USA) using non-linear regression (one-site competition with a logarithmic scale). The Ki values were calculated from the IC50 values using the Cheng-Prusoff […]
# equation. [C. […] The statistical calculations […]
# were performed on –log(Ki).
# gpH3R = biological target: T2, gpH3R (Cavia porcellus, UniProt Q9JI35); experiment: Ex vivo assay for histamine H3R antagonists on electrically stimulated guinea pig ileum
# T2 construct: from tissue; host or cells: isolated distal ileum of male guinea pigs
# Description: All newly synthesized compounds were evaluated as H3R antagonists/inverse agonists on the guinea pig ileum (gpH3R), stimulated electrically to induce contractions. The distinct affinity profile and species-dependent pharmacology of H3R ligands are known. […] Therefore, to compare species differences, all newly synthesized compounds were subjected to radioligand displacement assay in membrane fractions of HEK-293 cells stably expressing hH3R.
# (§1) Ex vivo assay for histamine H3R and H1R antagonists were measured on the isolated guinea pig ileum stimulated to contractions by histamine. The pA2-values were calculated according to Arunlakshana and Schild. The radioligand-displacement binding assay was performed in membrane fractions of HEK-293 cells stably expressing hH3R. Cell cultivation and membrane preparation was performed according to Kottke et al.. The Ki values were calculated from the IC50 values using the Cheng–Prusoff equation [37]. The statistical calculations were performed on –log(Ki). […] The inhibitory activities of novel ADS compounds were assessed in spectrophotometric Ellman’s assay using AChE from electric eel (eeAChE) and BuChE from horse serum (eqBuChE).
# 3. Pharmacological assay results.
# 3.1. Ex vivo assay for histamine H3R receptor antagonists on guinea pig ileum.
# Male guinea pigs, weighing 300-400 g were euthanized by a blow to the neck. Following this, a 20-30 cm length of the distal ileum, apart from the terminal 5 cm was rapidly removed and placed in phosphate buffer at room […]
# indomethacin (Sigma-Aldrich, St. Louis, MO, USA) (1·10-6 mol/L). The intraluminal content was rinsed and the isolated intestine was cut into 1.5-2 cm segments. The preparations were mounted between two platinum electrodes […]
# load of 1.0 g (Hugo Sachs Hebel-Messvorsatz (Tl-2)/HF-modem; Hugo Sachs Elektronik, Hugstetten, Germany) connected to a pen recorder (Kipp & Zonen BD41, Delft, Holland). During an equilibration period of 60 min, the Krebs buffer was changed every 10 min. The preparations were then continuously stimulated at 15-20 V at a frequency of 0.1 Hz for a duration of 0.5 ms, with rectangular-wave electrical pulses (Grass Stimulator S-88; Grass Instruments Co., Quincy, Massachusetts, USA). […] Five minutes […]
# before (R)-(−)-α-methylhistamine (RAMH) (Toronto Research Chemicals Inc., North York, Canada), […]
# added. The first cumulative concentration-response curve was determined to RAMH (10 nM – 10 mM) at an […]
# The second to fourth curve was measured against increasing antagonist concentration (incubation time 20 min). The pA2-values were calculated according to Arunlakshana and Schild. [Br J Pharmacol Chemother. […] Statistical analysis was carried out with the Students’ t-test. In all tests, a p<0.05 was considered statistically significant. The pA2 values were compared with the affinity of thioperamide (Sigma-Aldrich, St. Louis, MO, USA).
# gpH1R = biological target: T3, gpH1R (Cavia porcellus, UniProt P31389); experiment: Ex vivo assay for histamine H1R antagonists on guinea pig ileum stimulated by histamine (+atropine); details: gpH1R +Atropine pA2 ± sem, isolated guinea pig ileum, vs histamine, 0.05 µM atropine
# T3 construct: from tissue; host or cells: isolated distal ileum of male guinea pigs
# Description: A second histamine receptor located in the guinea pig ileum is H1R. The antagonistic effect at H1R was measured on the isolated guinea pig ileum stimulated to contractions by histamine. To eliminate the impact of muscarinic receptors located on the tested tissue, 0.05 µM of atropine was added to the Krebs buffer.
# as §1
# 3.2 Ex vivo assay for histamine H1R receptor antagonists on guinea pig ileum.
# Male guinea pigs, weighing 300-400 g were euthanized by a blow to the neck. A 20-30 cm length of the distal ileum, apart from the terminal 5 cm was rapidly removed and placed in phosphate buffer at room temperature (pH […]
# Aldrich, St. Louis, MO, USA) (1·10-6 mol/L). The intraluminal content was rinsed and the isolated intestine was cut into 1.5-2 cm segments. The preparations were mounted isotonically in a 20 mL organ bath filled with Krebs […]
# a constant load of 0.5 g (Hugo Sachs Hebel-Messvorsatz (Tl-2)/HF-modem; Hugo Sachs Elektronik, Hugstetten, Germany) connected to a pen recorder (Kipp & Zonen BD41, Delft, Holland). During an equilibration period of 40 min, the Krebs buffer was changed every 10 min. The first cumulative concentration-response curve was determined to histamine (Sigma-Aldrich, St. Louis, MO, USA) (10 nM - 10 mM) at increasing concentration spaced by three or 3.3-fold. The second to the fourth (or fifth) curve was measured in the presence of an increasing concentration of antagonist (incubation time 10 min). The pA2-values were calculated according to Arunlakshana and Schild. [Br J Pharmacol Chemother. […] Statistical analysis was carried out with the Students’ t-test. In all tests, a p<0.05 was considered statistically significant. The pA2 values were compared with the affinity
# eqBuChE = eqBuChE (Equus caballus, UniProt P81908); experiment: biochemical; details: for inhibition at 10 µM: read-out: eqBuChE % inh. (10 µM) ± SD; for IC50: read-out: eqBuChE IC50 ± sem
# eeAChE = biological target: T4, eeAChE (Electrophorus electricus, UniProt O42275); experiment: biochemical; design: species or system electric eel; details: for inhibition at 10 µM: read-out: eeAChE % inh. (10 µM) ± SD
# T4 construct: purchased Sigma–Aldrich (Steinheim, Germany)
# [1] = mean ± sem, at least three independent experiments, read-out: hH3R -log(Ki) ± sem (converted)
# [2] = hH3R -log(Ki) ± sem, mean ± sem, at least three independent experiments
# [3] = isolated guinea pig ileum, vs RAMH, read-out: gpH3R pA2 ± sem (converted)
# eqBuChE, sequence (P81908 whole entry): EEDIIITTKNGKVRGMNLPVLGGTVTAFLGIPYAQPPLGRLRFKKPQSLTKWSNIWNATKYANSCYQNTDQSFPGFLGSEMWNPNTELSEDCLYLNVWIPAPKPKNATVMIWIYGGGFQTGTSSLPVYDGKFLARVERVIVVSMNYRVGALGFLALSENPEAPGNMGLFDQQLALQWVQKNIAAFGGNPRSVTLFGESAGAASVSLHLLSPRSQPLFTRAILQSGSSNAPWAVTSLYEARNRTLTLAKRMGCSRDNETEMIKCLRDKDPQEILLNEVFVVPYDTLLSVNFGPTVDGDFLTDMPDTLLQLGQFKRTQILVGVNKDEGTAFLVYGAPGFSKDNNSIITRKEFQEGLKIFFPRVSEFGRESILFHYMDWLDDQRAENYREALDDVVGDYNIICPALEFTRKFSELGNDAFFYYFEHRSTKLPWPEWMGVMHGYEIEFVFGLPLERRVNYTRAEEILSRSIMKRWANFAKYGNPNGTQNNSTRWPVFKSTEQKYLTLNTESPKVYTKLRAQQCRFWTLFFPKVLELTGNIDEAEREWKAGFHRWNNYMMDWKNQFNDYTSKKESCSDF
# T1 sequence (Q9Y5N1 whole entry): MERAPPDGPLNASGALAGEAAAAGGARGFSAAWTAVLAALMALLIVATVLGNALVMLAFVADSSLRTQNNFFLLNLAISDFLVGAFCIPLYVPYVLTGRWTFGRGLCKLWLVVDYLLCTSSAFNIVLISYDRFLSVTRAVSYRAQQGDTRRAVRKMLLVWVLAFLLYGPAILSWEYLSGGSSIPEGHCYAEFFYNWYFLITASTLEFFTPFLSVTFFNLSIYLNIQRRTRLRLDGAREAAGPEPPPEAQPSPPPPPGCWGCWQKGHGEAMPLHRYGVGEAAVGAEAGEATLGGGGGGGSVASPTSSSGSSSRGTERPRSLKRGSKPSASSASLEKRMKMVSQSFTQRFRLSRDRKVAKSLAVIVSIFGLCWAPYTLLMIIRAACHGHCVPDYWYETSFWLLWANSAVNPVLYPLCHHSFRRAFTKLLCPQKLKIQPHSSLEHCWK
# T4 sequence (O42275 24-633): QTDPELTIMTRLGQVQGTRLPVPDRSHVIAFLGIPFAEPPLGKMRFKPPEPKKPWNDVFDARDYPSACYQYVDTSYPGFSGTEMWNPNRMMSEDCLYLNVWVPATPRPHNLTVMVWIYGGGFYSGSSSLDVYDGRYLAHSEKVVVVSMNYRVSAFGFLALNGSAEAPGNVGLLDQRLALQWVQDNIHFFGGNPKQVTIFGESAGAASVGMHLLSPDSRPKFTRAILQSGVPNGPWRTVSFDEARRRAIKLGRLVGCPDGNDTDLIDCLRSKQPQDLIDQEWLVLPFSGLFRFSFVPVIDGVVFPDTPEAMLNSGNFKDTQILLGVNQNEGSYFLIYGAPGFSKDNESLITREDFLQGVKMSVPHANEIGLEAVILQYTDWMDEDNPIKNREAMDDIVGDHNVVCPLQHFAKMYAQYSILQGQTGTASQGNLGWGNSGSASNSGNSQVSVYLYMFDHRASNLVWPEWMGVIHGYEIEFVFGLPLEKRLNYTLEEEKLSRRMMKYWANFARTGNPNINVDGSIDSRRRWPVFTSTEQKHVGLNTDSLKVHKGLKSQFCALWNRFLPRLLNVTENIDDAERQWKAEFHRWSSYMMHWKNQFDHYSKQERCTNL
# T3 sequence (P31389 whole entry): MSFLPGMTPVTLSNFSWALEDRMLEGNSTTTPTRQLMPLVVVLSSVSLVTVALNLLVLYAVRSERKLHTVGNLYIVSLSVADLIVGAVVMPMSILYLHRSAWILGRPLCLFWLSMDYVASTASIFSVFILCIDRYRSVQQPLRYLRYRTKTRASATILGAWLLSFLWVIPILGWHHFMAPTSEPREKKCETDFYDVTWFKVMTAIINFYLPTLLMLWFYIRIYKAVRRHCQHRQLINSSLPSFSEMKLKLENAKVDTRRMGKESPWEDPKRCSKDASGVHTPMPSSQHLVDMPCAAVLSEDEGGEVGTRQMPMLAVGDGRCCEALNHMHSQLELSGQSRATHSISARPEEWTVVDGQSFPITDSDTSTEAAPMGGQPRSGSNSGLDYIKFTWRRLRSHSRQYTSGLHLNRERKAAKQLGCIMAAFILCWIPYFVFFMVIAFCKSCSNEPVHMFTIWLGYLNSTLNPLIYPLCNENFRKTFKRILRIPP
# T2 sequence (Q9JI35 whole entry): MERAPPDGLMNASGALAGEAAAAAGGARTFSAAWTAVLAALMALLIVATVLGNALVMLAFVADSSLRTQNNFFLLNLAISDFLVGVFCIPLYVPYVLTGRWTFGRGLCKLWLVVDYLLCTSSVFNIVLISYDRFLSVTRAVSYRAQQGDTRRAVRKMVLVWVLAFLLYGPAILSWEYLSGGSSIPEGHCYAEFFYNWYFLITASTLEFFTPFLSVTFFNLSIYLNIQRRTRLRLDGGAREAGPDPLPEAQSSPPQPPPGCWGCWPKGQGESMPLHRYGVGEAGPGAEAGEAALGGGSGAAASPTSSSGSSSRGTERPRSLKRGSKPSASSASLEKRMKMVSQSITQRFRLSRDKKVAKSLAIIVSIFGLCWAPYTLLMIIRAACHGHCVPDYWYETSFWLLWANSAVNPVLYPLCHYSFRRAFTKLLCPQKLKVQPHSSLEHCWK
SMILES,Ki (hH3R; [1]) [µM],"gpH3R pA2 ± sem (gpH3R; isolated guinea pig ileum, vs RAMH, 20 min)",Kb (gpH1R) [µM],inhibition at 10 µM (eqBuChE) [%],IC50 (eqBuChE) [µM],Kb (gpH3R) [µM],inhibition at 10 µM (eeAChE) [%],Ki (hH3R; [2]) [µM],IC50 (eeAChE; eeAChE IC50 ± sem) [µM],Kb (gpH3R; [3]) [µM],Ki (hH3R; hH3R Ki) [µM],Kd (hH3R; radioligand used at 2 nM) [µM]
N=C(N)N(CCCCN1CCN(CCCCCCCOc2ccccc2)CC1)Cc1ccc(C(F)(F)F)cc1 [ADS1020],0.437,8.49 ± 0.05,0.871,–,–,–,–,–,–,–,–,–
N=C(N)N(CCCCN1CCN(CCCOCCCc2ccc(Cl)cc2)CC1)Cc1ccccc1 [ADS10278],0.324,–,0.117,76.6 ± 1.3,2 ± 0.1,0.0148,44 ± 0.9,–,–,–,–,–
N=C(N)N(CCCCN1CCN(CCCOCCCc2ccc(Cl)cc2)CC1)Cc1ccc(C(F)(F)F)cc1 [ADS10279],–,–,0.135,67.5 ± 0.5,4.8 ± 0.1,0.00525,47.4 ± 1.2,1.07,–,–,–,–
N=C(N)N(CCCc1ccc(Cl)cc1)CCCN1CCCCC1 [ADS10292],–,–,1.2,54.3 ± 4.7,8.4 ± 0.2,0.0457,50.6 ± 0.8,2.69,10.9,–,–,–
N=C(NCCCc1ccc(Cl)cc1)NCCCN1CCCCC1 [ADS10298],–,–,0.132,20.3 ± 0.8,–,–,39.8 ± 2.6,0.537,–,0.0417,–,–
N=C(N)N(CCCCN1CCCCC1)CCCc1ccc(Cl)cc1 [ADS10300],–,–,2.51,75.2 ± 0.4,2.4 ± 0.1,0.0479,40.7 ± 1.8,0.603,–,–,–,–
N=C(NCCCCN1CCCCC1)NCCCc1ccc(Cl)cc1 [ADS10301],–,–,0.347,60.4 ± 0.7,5.9 ± 0.1,0.0229,11.3 ± 0.4,0.191,–,–,< 0.2,–
N=C(NCCCCc1ccc(Cl)cc1)NCCCN1CCCCC1 [ADS10306],–,–,0.0676,89.4 ± 0.1,1.6,0.0479,17.8 ± 0.7,0.195,–,–,< 0.2,–
N=C(N)N(CCCCc1ccc(Cl)cc1)CCCN1CCCCC1 [ADS10312],–,–,1.38,72.6 ± 5.2,3.5 ± 0.1,0.0933,22.2 ± 3.9,0.525,–,–,–,–
N=C(N)N(CCCCN1CCN(CCCOCCCc2ccccc2)CC1)Cc1ccccc1 [ADS10349],2.51,–,0.347,32.4 ± 4.2,–,0.0457,6.4 ± 1.3,–,–,–,–,–
N=C(N)N(CCCCN1CCN(CCCOCCCc2ccccc2)CC1)Cc1ccc(C(F)(F)F)cc1 [ADS10350],–,–,0.269,28.3 ± 3.2,–,–,1 ± 0.2,2.69,–,0.0288,–,–
N=C(N)N(CCCCN1CCN(CCCCCCCOc2ccc(Cl)cc2)CC1)Cc1ccc(C(F)(F)F)cc1 [ADS10376],–,–,0.214,71.4 ± 0.6,4.9 ± 0.2,0.00708,27.8 ± 5.1,0.398,–,–,–,–
N=C(N)N(CCCCN1CCN(CCCCCCCOc2ccc(Cl)cc2)CC1)Cc1ccccc1 [ADS10377],–,–,0.123,84.6 ± 1.5,1.9 ± 0.1,0.0151,34.3 ± 2.6,0.282,–,–,–,–
"S=C(NC1CCCCC1)N1CCC(c2cnc[nH]2)CC1 [Thioperamide, reference compound]",–,–,–,–,–,–,–,–,–,0.00155,–,–
"CNCCc1cnc[nH]1 [[3H]Nα-methylhistamine, reference compound]",–,–,–,–,–,–,–,–,–,–,–,0.00308
